Experimental data as given in patent US5795612A, “Aspartyldipeptideamine derivatives and sweetner” (Ajinomoto Co., Inc., priority 1995, dated 1998).
Residues, ends and D or L forms follow the SMILES beside them.

How the values were obtained:
[1] = Sensory evaluation of sweetness potency relative to sugar; conditions: for Sweetnes Potency: Table 1, compared with 4% aqueous sucrose solution; for Sweetness Potency (sugar=1): sensory evaluation
[2] = Stability (half-life) heated to 70° C. in a phosphate buffer (pH=3); assay type: physicochemical

In the case of `COCC(NC(=O)[C@H](NC(=O)[C@@H](N)CC(=O)O)C(C)C)c1ccco1` (mixture of isomers) [Example 9, α-L-aspartyl-D-valine (RS)-α-furyl-β-methoxyethylamide], the “Sweetnes Potency” value [1] is reported as 200 and the “Sweetness Potency (sugar=1)” value [1] is reported as “Approximately 200”.

With `CC[C@H](NC(=O)[C@@H](CC)NC(=O)[C@@H](N)CC(=O)O)c1ccc(O)cc1` [Example 1, α-L-aspartyl-D-α-aminobutyric acid (S)-α-ethyl-p-hydroxybenzylamide] the “Sweetnes Potency” value [1] was 2000 and the “Sweetness Potency (sugar=1)” value [1] was 2000.

With `CC[C@@H](NC(=O)[C@@H](N)CC(=O)O)C(=O)N[C@@H](COC)c1ccc(O)cc1` [Example 2, α-L-aspartyl-D-α-aminobutyric acid (R)-α-methoxymethyl-p-hydroxybenzylamide] the “Sweetnes Potency” value [1] was 1500 and the “Sweetness Potency (sugar=1)” value [1] was 1500.

In the case of `CC[C@H](NC(=O)[C@H](NC(=O)[C@@H](N)CC(=O)O)C(C)C)c1ccc(O)cc1` [Example 3, α-L-aspartyl-D-valine (S)-α-ethyl-p-hydroxybenzylamide], the “Sweetnes Potency” value [1] is reported as 1500 and the “Sweetness Potency (sugar=1)” value [1] is reported as 1500.

In the case of `COC[C@H](NC(=O)[C@H](NC(=O)[C@@H](N)CC(=O)O)C(C)C)c1ccc(O)cc1` [Example 4, α-L-aspartyl-D-valine (R)-α-methoxymethyl-p-hydroxybenzylamide], the “Sweetnes Potency” value [1] is reported as 1250 and the “Sweetness Potency (sugar=1)” value [1] is reported as 1250.

For `CC(C)[C@@H](NC(=O)[C@@H](N)CC(=O)O)C(=O)N[C@@H](C)c1ccc(O)cc1` [Example 5, α-L-aspartyl-D-valine (S)-α-methyl-p-hydroxybenzylamide], the “Sweetnes Potency” value [1] was 1000 and the “Sweetness Potency (sugar=1)” value [1] was 1000.

In the case of `CC[C@H](NC(=O)[C@H](NC(=O)[C@@H](N)CC(=O)O)C(C)C)c1ccc(Cl)cc1` [Example 6, α-L-aspartyl-D-valine (S)-α-ethyl-p-chlorobenzylamide], the “Sweetnes Potency” value [1] is reported as 1250 and the “Sweetness Potency (sugar=1)” value [1] is reported as 1250.

In the case of `CC[C@H](NC(=O)[C@H](NC(=O)[C@@H](N)CC(=O)O)C(C)C)c1ccncc1` [Example 7, α-L-aspartyl-D-valine (S)-α-4-pyridylpropylamide], the “Sweetnes Potency” value [1] is reported as 300 and the “Sweetness Potency (sugar=1)” value [1] is reported as “Approximately 300”.

With `COC[C@H](NC(=O)[C@H](NC(=O)[C@@H](N)CC(=O)O)C(C)C)c1ccc(OC)cc1` [Example 8, α-L-aspartyl-D-valine (R)-α-methoxymethyl-p-methoxybenzylamide] the “Sweetnes Potency” value [1] was 250 and the “Sweetness Potency (sugar=1)” value [1] was “Approximately 250”.

For `COC(=O)[C@H](Cc1ccccc1)NC(=O)[C@@H](N)CC(=O)O` [aspartame] (H-Asp-Phe-OMe), the half-life [2] was “approximately 1 days”.
